In ChEMBL document CHEMBL5303573, “Mapping human microbiome drug metabolism by gut bacteria and their genes” (Nature, 2019):

Experiments:
[1] = The drug is tested on Collinsella aerofaciens strain: ATCC25986 for biotransformation. The drug concentrations were measured before and after a 12-h incubation by liquid-chromatography-coupled mass spectrometry (LC–MS); settings: 2 µM
[2] = The drug is tested on Alistipes indistinctus strain: DSM22520 for biotransformation. The drug concentrations were measured before and after a 12-h incubation by liquid-chromatography-coupled mass spectrometry (LC–MS); settings: 2 µM
[3] = The drug is tested on Bacteroides fragilis strain: ATCC43859 for biotransformation. The drug concentrations were measured before and after a 12-h incubation by liquid-chromatography-coupled mass spectrometry (LC–MS); settings: 2 µM
[4] = The drug is tested on Bacteroides pectinophilus strain: ATCC43243 for biotransformation. The drug concentrations were measured before and after a 12-h incubation by liquid-chromatography-coupled mass spectrometry (LC–MS); settings: 2 µM
[5] = The drug is tested on Bacteroides sp. WH2 strain: WH2 for biotransformation. The drug concentrations were measured before and after a 12-h incubation by liquid-chromatography-coupled mass spectrometry (LC–MS); settings: bacteroides sp. wh2, 12 h, 2 µM
[6] = The drug is tested on Parabacteroides merdae strain: ATCC43184 for biotransformation. The drug concentrations were measured before and after a 12-h incubation by liquid-chromatography-coupled mass spectrometry (LC–MS); settings: 2 µM
[7] = The drug is tested on Clostridium ramosum strain: DSM1402 for biotransformation. The drug concentrations were measured before and after a 12-h incubation by liquid-chromatography-coupled mass spectrometry (LC–MS); settings: thomasclavelia ramosa, 2 µM
[8] = The drug is tested on Dorea formicigenerans strain: ATCC27755 for biotransformation. The drug concentrations were measured before and after a 12-h incubation by liquid-chromatography-coupled mass spectrometry (LC–MS); settings: 2 µM
[9] = The drug is tested on Eubacterium rectale strain: ATCC33656 for biotransformation. The drug concentrations were measured before and after a 12-h incubation by liquid-chromatography-coupled mass spectrometry (LC–MS); settings: agathobacter rectalis, 2 µM
[10] = The drug is tested on Ruminococcus gnavus strain: ATCC29149 for biotransformation. The drug concentrations were measured before and after a 12-h incubation by liquid-chromatography-coupled mass spectrometry (LC–MS); settings: mediterraneibacter gnavus, 2 µM
[11] = The drug is tested on Ruminococcus lactaris strain: ATCC29176 for biotransformation. The drug concentrations were measured before and after a 12-h incubation by liquid-chromatography-coupled mass spectrometry (LC–MS); settings: 2 µM
[12] = The drug is tested on Edwardsiella tarda strain: ATCC23685 for biotransformation. The drug concentrations were measured before and after a 12-h incubation by liquid-chromatography-coupled mass spectrometry (LC–MS); settings: 2 µM
[13] = The drug is tested on Enterobacter cancerogenus strain: ATCC35316 for biotransformation. The drug concentrations were measured before and after a 12-h incubation by liquid-chromatography-coupled mass spectrometry (LC–MS); settings: 2 µM
[14] = The drug is tested on Escherichia coli strain: BW25113 for biotransformation. The drug concentrations were measured before and after a 12-h incubation by liquid-chromatography-coupled mass spectrometry (LC–MS); settings: 2 µM
[15] = bacteroides intestinalis, 12 h, 2 µM
Description: The drug is tested on Bacteroides intestinalis strain: DSM17393 for biotransformation. The drug concentrations were measured before and after a 12-h incubation by liquid-chromatography-coupled mass spectrometry (LC–MS)

[16] = bacteroides thetaiotaomicron, 12 h, 2 µM
Description: The drug is tested on Bacteroides thetaiotaomicron strain: VPI-5482 for biotransformation. The drug concentrations were measured before and after a 12-h incubation by liquid-chromatography-coupled mass spectrometry (LC–MS)

[17] = parabacteroides distasonis, 12 h, 2 µM
Description: The drug is tested on Parabacteroides distasonis strain: ATCC8503 for biotransformation. The drug concentrations were measured before and after a 12-h incubation by liquid-chromatography-coupled mass spectrometry (LC–MS)

[18] = parabacteroides johnsonii, 12 h, 2 µM
Description: The drug is tested on Parabacteroides johnsonii strain: DSM18315 for biotransformation. The drug concentrations were measured before and after a 12-h incubation by liquid-chromatography-coupled mass spectrometry (LC–MS)

[19] = enterocloster bolteae, 12 h, 2 µM
Description: The drug is tested on Clostridium bolteae strain: ATCCBAA-613 for biotransformation. The drug concentrations were measured before and after a 12-h incubation by liquid-chromatography-coupled mass spectrometry (LC–MS)

[20] = akkermansia muciniphila, 12 h, 2 µM
Description: The drug is tested on Akkermansia muciniphila strain: ATCC BAA-835 for biotransformation. The drug concentrations were measured before and after a 12-h incubation by liquid-chromatography-coupled mass spectrometry (LC–MS)

Measured: Bacterial Biotransformation

CCN(CC)CCNC(=O)c1cc(S(C)(=O)=O)ccc1OC [TIAPRIDE]
Compound NOT metabolized: [1] | [2] | [3] | [4] | [5] | [6] | [7] | [8] | [9] | [10] | [11] | [12] | [13] | [14] | [15] | [16] | [17] | [18] | [19] | [20]
